According to patent US20230381142A1, “ANTILEISHMANIAL COMPOUNDS, COMPOSITIONS AND USE THEREOF” (TRUSTEES OF BOSTON UNIVERSITY, priority 2022, published 2023):
≈ marks a conversion by molar mass, not a printed value. Where two headings read alike, the source gives them in different places. Marks after values point to notes of the source that are not given here.

Assays:
[1] = tested on: L. major (strain Friedlin) in J774 cells; test: J774 luciferase infection assay (Assay Conditions E); assay type: cell-based, Leishmania major; conditions: values marked e
Protocol: (§1) Assay Conditions E: J774 cells (ATCC J774A.1 were grown in DMEM supplemented with 10% Fetal Bovine Serum (FBS) and 1% Penicillin-Streptomycin at 37° C. in 5% CO2. Leishmania parasites expressing luciferase and GFP were grown as described in Front. Cell. Infect. Microbiol (2019) 9:237. J774 cells were seeded in microwell plates at 3×10^5 cells/mL density. Cells were washed with PBS and incubated with complete DMEM medium containing stationary phase Leishmania promastigotes (L. major: strain Friedlin; L. braziliensis, strain BA788) at a 1:10 parasite-cell ratio for 24 h. Cells were washed with PBS. Cells and compounds were incubated for 48 h at 37° C. and 5% C02. Compounds were tested in 8-point 2-fold serial dilution in 4 technical replicates, and 2 biological replicates. After 48 h, OneTiterGlo (Promega) (100 μl) was added to each well. Plates were incubated for 15 min and bioluminescence was measured using a plate reader (Molecular Devices). Effective concentration inducing 75% activity (EC75) was calculated using GraphPad Prism Software (version 9.0).

[2] = tested on: L. braziliensis (strain BA788) in J774 cells; test: as above; assay type: cell-based, Leishmania braziliensis; conditions: footnote e
Protocol: as §1

[3] = tested on: L. donovani intracellular amastigotes in B10R cells; test: UCSD L. donovani infection assay (Assay Conditions D); assay type: cell-based; conditions: for EC50 / IC50: Leishmania donovani; for L. donovani amastigotes EC75 (B10R cells): footnote d
Outline: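 B10R cells (300/well) infected with stationary-phase L. donovani WT promastigotes at 20 parasites/cell in DMEM high-glucose, 5% FBS, with compounds 72 h at 37° C., 5% CO2. Formaldehyde-fixed, DAPI-stained, imaged by high-content microscopy; 10-point 2-fold dilutions (screen at 10 μM) gave EC50 and host CC50.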

[4] = GSK inMac assay, host cell toxicity readout (LD MAC); assay type: cell-based, human; conditions: human; footnote c; read-out: THP-1 Host Cell CC50
Outline: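 Intramacrophage L. donovani assay in THP-1 macrophages; host toxicity taken from host cell number per well, giving MAC EC50. Run alongside amastigote-per-cell and infected-cell readouts in the same wells.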

[5] = UCSD infection assay, host cell cytotoxicity (CC50); assay type: cell-based; conditions: mouse, B10R host cells infected with L. donovani; footnote d
[6] = tested on: L. donovani intracellular amastigotes infecting THP-1 macrophages; test: GSK intramacrophage L. donovani assay (LD AMMAC, inMac; Assay Conditions C); assay type: cell-based; conditions: Leishmania donovani, THP-1
Outline: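 L. donovani amastigotes within THP-1 macrophages; EC50 based on average intracellular amastigotes per infected cell (AMMAC). Infected-cell percentage (INFCELL) and host-cell number (MAC) also read, the latter as toxicity output.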

[7] = Kinetic aqueous solubility by CAD; assay type: physicochemical; conditions: aqueous medium, kinetic from dmso stock, high-throughput CAD
Protocol: Solubility of compounds using ChemiLuminescent Nitrogen Detection (CLND) was measured as described. Solubility of compounds using Charged Aerosol Detection (CAD) was measured as described. Solubility of solid compounds in Fasted Simulated Intestinal Fluid (FaSSIF) was measured as described.

[8] = UCSD infection assay, host cell cytotoxicity (CC50); assay type: cell-based; conditions: host macrophages infected with L. donovani; cytotoxicity against host macrophages
human serum albumin = human serum albumin (Homo sapiens, UniProt P02768); test: Human serum albumin (HSA) binding, chromatographic; assay type: in vitro ADME
Protocol: The percentage of compound bound to human serum albumin was measured using a chromatographic method as described. Briefly, each compound was assayed on an immobilized HSA column and gradient retention times measured, with chromatographic peak detection by UV. Each retention time was then converted to a % HSA bound value using a calibration set of compounds with a known % HSA binding.

[9] = Property forecast index (PFI = ChromLogD7.4 + aromatic rings); assay type: physicochemical
[10] = B10R cells, values marked d, read-out: L. donovani amastigotes EC50 (B10R cells)
[11] = average of two biological replicates, read-out: L. donovani EC50 (UCSD assay)

human serum albumin, sequence (P02768 25-609): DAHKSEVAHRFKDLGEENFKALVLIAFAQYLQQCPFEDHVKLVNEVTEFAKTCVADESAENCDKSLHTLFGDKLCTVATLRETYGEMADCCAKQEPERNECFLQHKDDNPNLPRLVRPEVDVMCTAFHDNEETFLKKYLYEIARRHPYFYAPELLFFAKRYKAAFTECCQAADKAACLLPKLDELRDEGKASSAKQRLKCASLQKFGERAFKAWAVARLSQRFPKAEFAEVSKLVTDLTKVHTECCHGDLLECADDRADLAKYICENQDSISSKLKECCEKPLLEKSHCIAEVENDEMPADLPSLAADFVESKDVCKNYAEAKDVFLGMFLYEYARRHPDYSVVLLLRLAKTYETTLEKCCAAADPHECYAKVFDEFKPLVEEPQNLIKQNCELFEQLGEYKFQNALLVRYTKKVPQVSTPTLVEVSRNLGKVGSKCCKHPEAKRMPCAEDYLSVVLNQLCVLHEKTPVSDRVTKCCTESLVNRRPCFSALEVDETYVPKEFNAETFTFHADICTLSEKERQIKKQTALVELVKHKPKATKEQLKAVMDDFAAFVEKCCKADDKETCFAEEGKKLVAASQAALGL

Row | Compound | L. major amastigotes EC75 (J774 cells) [1] | L. braziliensis amastigotes EC75 (J774 cells) [2] | EC50 [3, 10] | CC50 [4] | L. donovani amastigotes EC75 (B10R cells) ([3]; B10R cells) | CC50 at 72 h [5] | IC50 [6] | solubility [7] | CC50 at 72 h [8] | IC50 [3] | EC50 [3, 11] | HSA Binding (human serum albumin) | PFI [9]
1 | CC(C)Cc1n[nH]c2c1C(c1ccccc1Br)N(c1ccc3c(c1)OCO3)C2=O (centres unmarked) [CMLD011548] | 1.8^e μM | 5200 nM | 300 nM | > 20000 nM |  |  |  |  |  |  |  |  | 
2 | CC(C)Cc1n[nH]c2c1C(c1ccccc1Br)N(c1ccc(N(C)C)cc1)C2=O (centres unmarked) [CMLD011554] | 5.2^c μM | 2900 nM | 100 nM | 5700 nM | 100 nM | 6310 nM |  |  |  |  |  |  | 
3 | COc1cc(F)ccc1C1c2c(CC(C)C)n[nH]c2C(=O)N1c1ccc(N(C)C)cc1 (centres unmarked) [CMLD011572] | 1.3^e μM | 1900 nM |  | 8500 nM |  | 10000 nM |  |  |  |  |  |  | 
4 | COc1ccccc1C1c2c(CC(C)C)n[nH]c2C(=O)N1c1ccc(N(C)C)cc1 (centres unmarked) [Compound 80, 5-(4-(dimethylamino)phenyl)-3-isobutyl-4-(2-methoxyphenyl)-4,5-dihydropyrrolo[3,4-c]pyrazol-6(1H)-one] |  |  |  |  |  |  | 200 nM | 66 µM (≈ 26.7 µg/mL) | 3450 nM | 100 nM | 70 nM | 95.7% | 8.6
5 | CC(C)Cc1n[nH]c2c1C(c1ccccc1Cl)N(c1ccc3c(c1)OCO3)C2=O (centres unmarked) [CMLD010902] | 7.3^e μM | >10000 nM | 200 nM | 12200 nM |  |  |  |  |  |  |  |  | 
6 | COc1cc(F)ccc1C1c2c(CC(C)C)n[nH]c2C(=O)N1c1ccc(Br)cc1 (centres unmarked) [Compound 77, 5-(4-bromophenyl)-4-(4-fluoro-2-methoxyphenyl)-3-isobutyl-4,5-dihydropyrrolo[3,4-c]pyrazol-6(1H)-one] |  |  |  |  |  |  | 100 nM | < 1 µM | 4040 nM | 100 nM | 120 nM | 98.5% | 9.7
7 | COc1ccc(N2C(=O)c3[nH]nc(CC(C)C)c3C2c2ccc(F)cc2C)cc1F (centres unmarked) [Compound 73, 4-(4-fluoro-2-methylphenyl)-5-(3-fluoro-4-methoxyphenyl)-3-isobutyl-4,5-dihydropyrrolo[3,4-c]pyrazol-6(1H)-one] |  |  |  |  |  |  | 3200 nM | 35 µM (≈ 14.4 µg/mL) | 10900 nM | 200 nM | 160 nM | 96.3% | 8.8
8 | Cc1cc(F)ccc1C1c2c(CC(C)C)n[nH]c2C(=O)N1c1ccc2ncnn2c1 (centres unmarked) [Compound 89, 5-([1,2,4]triazolo[1,5-a]pyridin-6-yl)-4-(4-fluoro-2-methylphenyl)-3-isobutyl-4,5-dihydropyrrolo[3,4-c]pyrazol-6(1H)-one] |  |  |  |  |  |  | 1600 nM | < 1 µM | > 20000 nM | 900 nM | 870 nM | 93.2% | 8.1
9 | COc1ccc(N2C(=O)c3[nH]nc(CC(C)C)c3C2c2ccc(F)cc2OC)cn1 (centres unmarked) [CMLD011574] | 4.8^e μM | 8200 nM | 300 nM | > 20000 nM | 300 nM |  |  |  |  |  |  |  | 
10 | CC(C)Cc1n[nH]c2c1C(c1ccccc1Cl)N(c1ccc(N(C)C)cc1)C2=O (centres unmarked) [Compound 78, 4-(2-chlorophenyl)-5-(4-(dimethylamino)phenyl)-3-isobutyl-4,5-dihydropyrrolo[3,4-c]pyrazol-6(1H)-one] |  |  |  |  |  |  | 800 nM | 21 µM (≈ 8.59 µg/mL) | 7320 nM | 300 nM | 260 nM | 96.7% | 9.4
11 | Cc1cc(F)ccc1C1c2c(CC(C)C)n[nH]c2C(=O)N1c1ccc2c(c1)OCO2 (centres unmarked) [CMLD011564] | 1.4^e μM | 4900 nM | 100 nM | 12100 nM | 100 nM | 12600 nM |  |  |  |  |  |  | 
12 | CC(C)Cc1n[nH]c2c1C(c1ccccc1Cl)N(c1ccc3c(c1)OCO3)C2=O (centres unmarked) [Compound 67, 5-(benzo[d][1,3]dioxol-5-yl)-4-(2-chlorophenyl)-3-isobutyl-4,5-dihydropyrrolo[3,4-c]pyrazol-6(1H)-one] |  |  |  |  |  |  | 500 nM | 35 µM (≈ 14.3 µg/mL) | 12200 nM | 200 nM | 160 nM | 98.0% | 8.7
13 | Cc1cc(F)ccc1C1c2c(CC(C)C)n[nH]c2C(=O)N1c1ccc(Br)cc1 (centres unmarked) [Compound 76, 5-(4-bromophenyl)-4-(4-fluoro-2-methylphenyl)-3-isobutyl-4,5-dihydropyrrolo[3,4-c]pyrazol-6(1H)-one] |  |  |  |  |  |  | 600 nM | < 1 µM | 3040 nM | 100 nM | 120 nM | 97.7% | 9.8
14 | COc1ccc(N2C(=O)c3[nH]nc(CC(C)C)c3C2c2ccc(F)cc2C)cc1F (centres unmarked) [CMLD011562] | 2.7^e μM | 5200 nM | 200 nM | 10900 nM | 200 nM | 10000 nM |  |  |  |  |  |  | 
15 | COc1ccc(N2C(=O)c3[nH]nc(CC(C)C)c3C2c2ccccc2OC)cn1 (centres unmarked) [Compound 85, 3-isobutyl-4-(2-methoxyphenyl)-5-(6-methoxypyridin-3-yl)-4,5-dihydropyrrolo[3,4-c]pyrazol-6(1H)-one] |  |  |  |  |  |  | 7900 nM | 176 µM (≈ 69.1 µg/mL) | > 20000 nM | 1100 nM | 1110 nM | 93.9% | 8.0
16 | COc1ccc(N2C(=O)c3[nH]nc(CC(C)C)c3C2c2ccccc2OC)cc1F (centres unmarked) [Compound 72, 5-(3-fluoro-4-methoxyphenyl)-3-isobutyl-4-(2-methoxyphenyl)-4,5-dihydropyrrolo[3,4-c]pyrazol-6(1H)-one] |  |  |  |  |  |  | 1300 nM | 43 µM (≈ 17.6 µg/mL) | 260 nM | 400 nM | 380 nM | 95.9% | 8.5
17 | Cc1cc(F)ccc1C1c2c(CC(C)C)n[nH]c2C(=O)N1c1ccc(N(C)C)cc1 (centres unmarked) [Compound 81, 5-(4-(dimethylamino)phenyl)-4-(4-fluoro-2-methylphenyl)-3-isobutyl-4,5-dihydropyrrolo[3,4-c]pyrazol-6(1H)-one] |  |  |  |  |  |  | 100 nM | 27 µM (≈ 11 µg/mL) | 7510 nM | 100 nM | 110 nM | 96.5% | 9.1
18 | COc1ccc(N2C(=O)c3[nH]nc(CC(C)C)c3C2c2ccccc2Cl)cn1 (centres unmarked) [BUCMD00686] | >10^e μM | 1000 nM | 1100 nM | 9900 nM | 500 nM | 10000 nM |  |  |  |  |  |  | 
19 | Cc1cc(F)ccc1C1c2c(CC(C)C)n[nH]c2C(=O)N1c1ccc2c(c1)OCO2 (centres unmarked) [Compound 70, 5-(benzo[d][1,3]dioxol-5-yl)-4-(4-fluoro-2-methylphenyl)-3-isobutyl-4,5-dihydropyrrolo[3,4-c]pyrazol-6(1H)-one] |  |  |  |  |  |  | > 100000 nM | 46 µM (≈ 18.7 µg/mL) | 12100 nM | 100 nM | 100 nM | 97.6% | 8.6
20 | CC(C)Cc1n[nH]c2c1C(c1ccccc1Br)N(c1ccc(Br)cc1)C2=O (centres unmarked) [Compound 74, 4-(2-bromophenyl)-5-(4-bromophenyl)-3-isobutyl-4,5-dihydropyrrolo[3,4-c]pyrazol-6(1H)-one] |  |  |  |  |  |  | 10000 nM | < 1 µM | 4980 nM | 400 nM | 390 nM | 98.0% | 10.4
